In article PMC5424428, “Characteristics of L-citrulline transport through blood-brain barrier in the brain capillary endothelial cell line (TR-BBB cells)” (Journal of Biomedical Science, 2017):
Values joined by “and” are separate entries in the source; they are usually repeats but may differ in a detail not shown here. Identical values can stand only once. “Also recorded” adds a separate entry of the source. Like-named read-outs stand apart in the source and are kept apart here.

Key:
[1] = test system: TR-BBB cells; assay: Inhibition of [14C]L-citrulline uptake in TR-BBB cells by unlabeled amino acids, transporter inhibitors and drugs; assay type: cell-based, rat; conditions: for activity at 2000 µM / activity at 20000 µM / IC50: Rattus norvegicus; for activity at 2000 µM / activity at 20000 µM / Ki / IC50 / Uptake of [14C]L-citrulline (% of control): 5 min; for Effect on [14C]L-citrulline uptake: unlabeled compound present; for Decrease of [14C]L-citrulline uptake: discussion of Table 3; for Mode of inhibition of [14C]L-citrulline uptake / Ki: Lineweaver-Burk plot; for Ki: 300 μM inhibitor
Method: (§1) The TR-BBB cells established from transgenic rats harboring the temperature-sensitive simian virus 40 large T-antigen, an in vitro BBB model, were cultured at 33 °C as described previously (21). TR-BBB cells were received from Professor Tetsuya Terasaki (Tohoku University, Japan) and were cultured with Dulbecco’s modified Eagle’s medium (Invitrogen, San Diego, CA), supplemented with 10% fetal bovine serum, 100 U/mL penicillin, 100 μg/mL streptomycin (Invitrogen, San Diego, CA) and 15 μg/L endothelial cell growth factor (Roche, Mannheim, Germany) at 33 °C in a humidified atmosphere of 5% CO2/air. On rat tail collagen type I-coated 24 well culture plates (IWAKI, Tokyo, Japan) initial seeding was carried out at 1 × 10^5 cells/well for the uptake study. After incubation for 2 days at 33 °C, the cultures became confluent and then they were used in the transport study. L-Citrulline free medium was used all experiments except for experiments on saturation kinetics of [^14C]L-citrulline uptake (Fig. 2), Lineweaver-Burk plots for [^14C]L-citrulline uptake (Fig. 4), or inhibitory effect of L-amino acids as a control (Table 2).
(§2) The [^14C] L-citrulline uptake study was performed according to the previous report. Briefly, extracellular fluid (ECF) buffer containing [^14C]L-citrulline (44.4 μM) in the presence or absence of unlabeled inhibitors was added to the TR-BBB cells and then incubated at pH 7.4 and 37 °C for the designated time (5 min). Uptake was terminated by the addition of ice-cold ECF buffer. A Na^+ free transport medium was prepared by using LiCl, choline chloride, sodium gluconate and KHCO3 instead of NaCl and NaHCO3, respectively. The cells were then solubilized by incubation overnight in 750 μL of 1 N NaOH at room temperature, and the measurement of radioactivity was performed in a liquid scintillation counter (LS6500; Beckman, Fullerton, CA). Cell to medium ratio (μL/mg protein) was calculated as follows: the radioactivity (dpm/μL) in the sample per milligram cell protein (dpm/mg protein).
To analyze the competitive nature of L-dopa and gabapentin for [^14C]L-citrulline uptake, Lineweaver-Burk plots were generated. The inhibitory constant (K i) was calculated from Eq. (2):2 V=Vmax⋅C/Km⋅1+I/Ki+C where I corresponds to the concentration of L-dopa or gabapentin, respectively.

[2] = test system: TR-BBB cells; assay: [14C]L-citrulline uptake study in TR-BBB cells (time course, ion dependence, saturation kinetics); assay type: in vitro ADME, rat; conditions: for Uptake of [14C]L-citrulline (% of control): ion dependence: Na+ and/or Cl- replaced in the uptake buffer by the named salt, mean ± S.E.M.
Method: as §1, §2
For kinetic studies, the Michaelis-Menten constant (K m) and the maximum uptake rate (V max) of [^14C] L-citrulline were estimated from Eq. (1):1 V=Vmax⋅C/Km+C
Where V and C are the initial uptake rate of [^14C] L-citrulline at 5 min and the concentration of L-citrulline, and V max is the maximum uptake rate for the saturable component.

[3] = Table 4, drug 2 mM, pH 7.4, 37 °C, mean ± S.E.M., read-out: Uptake of [14C]L-citrulline (% of control)
[4] = pH 7.4, read-out: IC50 for inhibition of [14C]L-citrulline uptake
[5] = Table 4, drug 0.5 mM, pH 7.4, 37 °C, mean ± S.E.M.
[6] = Table 3, transporter inhibitor 2 mM, pH 7.4, 37 °C, mean ± S.E.M.
[7] = Table 2, L-amino acid 2 mM, pH 7.4, 37 °C, mean ± S.E.M.
[8] = pH 7.4, read-out: Uptake of [14C]L-citrulline (% of control), Table 2, L-amino acid 2 mM, pH 7.4, 37 °C, mean ± S.E.M.
[9] = Table 2, L-amino acid 2 mM, pH 7.4, 37 °C, mean ± S.E.M., read-out: Uptake of [14C]L-citrulline (% of control)
[10] = TR-BBB cells, pH 7.4, 37 °C, read-out: IC50 for inhibition of [14C]L-citrulline uptake
[11] = Table 2, L-amino acid 20 mM, pH 7.4, 37 °C, mean ± S.E.M.

Compound: NC1(C(=O)O)CC2CCC1C2 (centres unmarked) [BCH, 2-aminobicyclo-(2,2,1)-heptane-2-carboxylic acid]
- activity at 2000 µM ([1]; Table 3, transporter inhibitor 2 mM, pH 7.4, 37 °C, mean ± S.E.M., read-out: Uptake of [14C]L-citrulline (% of control)): 25.3 ± 4.4%
- activity at 20000 µM ([1]; Table 3, transporter inhibitor 20 mM, pH 7.4, 37 °C, mean ± S.E.M., read-out: Uptake of [14C]L-citrulline (% of control)): 28.1 ± 11.6%
- Effect on [14C]L-citrulline uptake ([1]; TR-BBB cells): markedly inhibited
- Decrease of [14C]L-citrulline uptake [1]: about 75%

Compound: C[N+](C)(C)CCO.[Cl-] [Choline Chloride, choline chloride]
- Uptake of [14C]L-citrulline (% of control) ([2]; pH 7.4, 37 °C, 5 min): 83.3 ± 5.7 % of control

Compound: NCCc1ccc(O)c(O)c1 [Dopamine]
- activity at 2000 µM [1, 3]: 110 ± 2.7%
- Effect on [14C]L-citrulline uptake ([1]; TR-BBB cells): no effect; also recorded: no significant effects

Compound: NCC1(CC(=O)O)CCCCC1 [Gabapentin]
- Mode of inhibition of [14C]L-citrulline uptake [1]: competitively inhibited
- Ki ([1]; pH 7.4, 37 °C): 679 µM
- IC50 [1, 4]: 223 µM
- Effect on [14C]L-citrulline uptake ([1]; TR-BBB cells): strongly inhibited; also recorded: significantly inhibited
- Uptake of [14C]L-citrulline (% of control) [1, 5]: 45.0 ± 2.52 % of control
- Uptake of [14C]L-citrulline (% of control) ([1]; Table 4, drug 5 mM, pH 7.4, 37 °C, mean ± S.E.M.): 29.6 ± 2.73 % of control

Compound: COc1ccc2c3c([nH]c2c1)C(C)=NCC3 [Harmaline]
- Decrease of [14C]L-citrulline uptake [1]: about 40%

Compound: NC(N)=NCCCC[C@H](N)C(=O)O [Homoarginine]
- Effect on [14C]L-citrulline uptake ([1]; TR-BBB cells): no inhibition effect
- Uptake of [14C]L-citrulline (% of control) [1, 6]: 95.98 ± 13.8 % of control

Compound: C[C@H](N)C(=O)O [L-Alanine]
- Effect on [14C]L-citrulline uptake ([1]; TR-BBB cells): significantly inhibited
- Uptake of [14C]L-citrulline (% of control) [1, 7]: 73.0 ± 6.4 % of control

Compound: N=C(N)NCCC[C@H](N)C(=O)O [L-Arginine]
- IC50 [1, 4]: 33400 µM
- activity at 2000 µM [1, 8]: 59.9 ± 6.6%
- activity at 20000 µM ([1]; pH 7.4, read-out: Uptake of [14C]L-citrulline (% of control), Table 2, L-amino acid 20 mM, pH 7.4, 37 °C, mean ± S.E.M.): 53.2 ± 4.4%
- Effect on [14C]L-citrulline uptake ([1]; TR-BBB cells): significantly inhibited

Compound: N[C@@H](CC(=O)O)C(=O)O [L-Aspatate, L-aspartate]
- Effect on [14C]L-citrulline uptake ([1]; TR-BBB cells): did not inhibit
- Uptake of [14C]L-citrulline (% of control) [1, 7]: 101.5 ± 8.6 % of control

Compound: NC(=O)NCCC[C@H](N)C(=O)O [L-Citrulline]
- activity at 2000 µM [1, 8]: 36 ± 2.1%
- Time-course of [14C]L-citrulline uptake ([2]; 44.4 μM, 37 °C, ECF buffer): linear for 5 min
- Ion dependence of [14C]L-citrulline uptake ([2]; absence of Na+ or Cl- in the uptake buffer): no significant difference
- Michaelis-Menten constant Km1 of [14C]L-citrulline uptake ([2]; first (Km1) of two saturable components, 0–5 mM unlabeled L-citrulline, 5 min, pH 7.4, 37 °C): 30.9 ± 1.0 µM and 30.9 µM
- Vmax1 of [14C]L-citrulline uptake ([2]; first saturable component, 5 min, pH 7.4, 37 °C): 185 nmol/mg/min
- Michaelis-Menten constant Km2 of [14C]L-citrulline uptake ([2]; second (Km2) of two saturable components, 0–5 mM unlabeled L-citrulline, 5 min, pH 7.4, 37 °C): 1.69 ± 0.43 mM and 1.69 mM
- Vmax2 of [14C]L-citrulline uptake ([2]; second saturable component, 5 min, pH 7.4, 37 °C): 3.19 µmol/mg/min

Compound: N[C@@H](CS)C(=O)O [L-Cysteine]
- activity at 2000 µM [1, 9]: 48.4 ± 2.6%
- Effect on [14C]L-citrulline uptake ([1]; TR-BBB cells): significantly inhibited

Compound: N[C@@H](Cc1ccc(O)c(O)c1)C(=O)O [L-Dopa]
- Mode of inhibition of [14C]L-citrulline uptake [1]: competitively inhibited
- Ki ([1]; pH 7.4, 37 °C): 486 µM
- IC50 [1, 10]: 501 µM
- Effect on [14C]L-citrulline uptake ([1]; TR-BBB cells): strongly inhibited; also recorded: significantly inhibited
- Uptake of [14C]L-citrulline (% of control) [1, 5]: 52.1 ± 6.6 % of control
- Uptake of [14C]L-citrulline (% of control) ([1]; Table 4, drug 2 mM, pH 7.4, 37 °C, mean ± S.E.M.): 21.6 ± 2.8 % of control

Compound: N[C@@H](CCC(=O)O)C(=O)O [L-Glutamate]
- activity at 2000 µM ([1]; pH 7.4, read-out: Uptake of [14C]L-citrulline (% of control)): 103 ± 7.8%
- Effect on [14C]L-citrulline uptake ([1]; TR-BBB cells): did not inhibit

Compound: NC(=O)CC[C@H](N)C(=O)O [L-Glutamine]
- activity at 2000 µM [1, 9]: 37.5 ± 1.3%

Compound: CC(C)C[C@H](N)C(=O)O [L-Leucine]
- Uptake of [14C]L-citrulline (% of control) [1, 7]: 49.4 ± 5.8 % of control
- Uptake of [14C]L-citrulline (% of control) [1, 11]: 17.2 ± 3.9 % of control

Compound: NCCCC[C@H](N)C(=O)O [L-Lysine]
- Effect on [14C]L-citrulline uptake ([1]; TR-BBB cells): significantly inhibited
- Uptake of [14C]L-citrulline (% of control) [1, 7]: 74.5 ± 9.0 % of control
- Uptake of [14C]L-citrulline (% of control) [1, 11]: 66.78 ± 2.1 % of control

Compound: N[C@@H](Cc1ccccc1)C(=O)O [L-Phenylalanine]
- IC50 [1, 10]: 68.9 µM
- Effect on [14C]L-citrulline uptake ([1]; TR-BBB cells): strongly inhibited
- Uptake of [14C]L-citrulline (% of control) [1, 7]: 13.7 ± 1.8 % of control
- Uptake of [14C]L-citrulline (% of control) [1, 11]: 13.4 ± 1.4 % of control

Compound: N[C@@H](CO)C(=O)O [L-Serine]
- activity at 2000 µM [1, 9]: 79.7 ± 2.5%
- Effect on [14C]L-citrulline uptake ([1]; TR-BBB cells): significantly inhibited

Compound: CC(C)[C@H](N)C(=O)O [L-Valine]
- Uptake of [14C]L-citrulline (% of control) [1, 7]: 31.5 ± 1.4 % of control

Compound: [Cl-].[Li+] [LiCl]
- Uptake of [14C]L-citrulline (% of control) ([2]; pH 7.4, 37 °C, 5 min): 116.2 ± 5.2 % of control

Compound: CNC(C)(C)C(=O)O [MeAIB, N-(methylamino) isobutyric acid]
- Effect on [14C]L-citrulline uptake ([1]; TR-BBB cells): no inhibition effect
- Uptake of [14C]L-citrulline (% of control) [1, 6]: 99.8 ± 6.3 % of control

Compound: CN1C(=O)C=CC1=O [Methylmaleimide, L-methylmaleimide]
- Effect on [14C]L-citrulline uptake ([1]; TR-BBB cells): no inhibition effect
- Uptake of [14C]L-citrulline (% of control) [1, 6]: 103.2 ± 10.1 % of control

Compound: C=C[C@H]1C[N@@]2CC[C@H]1C[C@@H]2[C@@H](O)c1ccnc2ccc(OC)cc12 [Qunidine, Quinidine]
- Uptake of [14C]L-citrulline (% of control) ([1]; 500 µM): 52.5 ± 3.0 % of control
- Effect on [14C]L-citrulline uptake ([1]; TR-BBB cells): significantly inhibited

Compound: O=C([O-])[C@H](O)[C@@H](O)[C@H](O)[C@H](O)CO.[Na+] [Sodium gluconate, sodium gluconate]
- Uptake of [14C]L-citrulline (% of control) ([2]; pH 7.4, 37 °C, 5 min): 103.9 ± 6.8 % of control

Compound: NCCS(=O)(=O)O [Taurine]
- activity at 2000 µM [1, 3]: 90.5 ± 4.4%
- Effect on [14C]L-citrulline uptake ([1]; TR-BBB cells): no significant effects

Compound: Nc1c2c(nc3ccccc13)CCCC2 [tacrine]
- Effect on [14C]L-citrulline uptake ([1]; TR-BBB cells): no significant inhibition effect
